Test results as given in patent US9351951B2, “Prevention of proteomic and genomic damage by dicarbonyl substrates of Glo 1” (University of Warnick, priority 2010, dated 2016).

What was measured:
[1] = system: HepG2 cells; test: Frameshift mutation-dependent GFP reporter in HepG2 cells; type: cell-based, human; conditions: 400 μM MG
Method: The pEGFP-CA/T12 vector is a reporter for efficiency of transfection while pEGFP-CA13 vector is a reporter of frameshift mutation induced by MG.^30 HepG2 cells (2×10^5 cells/well) were cultured in 12-well plates for 24 h, the MEM medium removed, the cells washed with serum free medium and replaced with DNA/lipofectamine complexes in serum free medium—transfection medium (Lipofectamine 2000 reagent, 2 μl; (1.8 μg pEGFP-CA13 or pEGFP-CA/T12; 2.0 ml serum free medium)—and incubated for 5 h at 37° C. The transfection medium was removed and replaced with complete MEM medium supplemented with 10% FCS and 2 mM glutamine) and incubated for 48 h. Transfection efficiency was assessed quantitatively by flow cytometry. […] Thereafter, cells were washed with phosphate-buffered saline (PBS) and analysed for GFP expression by flow cytometry.

[2] = system: HepG2 cells; test: Growth inhibition of HepG2 cells by MG; type: cell-based; conditions: Homo sapiens, n=8, read-out: median growth inhibitory concentration
[3] = system: methylglyoxal; conditions: 24 h post-treatment
Method: (§1) Other Methods. Activity of Glo1 was determined by measuring the initial rate of isomerisation of the hemithioacetal formed from methylglyoxal and GSH to S-D-lactoylglutathione followed spectrophotometrically at 240 nm.^43 The concentration of MG in cells and culture medium was determined by stable isotopic dilution analysis liquid chromatography with tandem mass spectrometric detection.^4 ROS formation was assessed with dichlorodihydrofluorescein diacetate (H2DCFDA), monitoring the generation of dichlorofluorescein (DCF) fluorescence. HepG2 cells and BJ fibroblasts were incubated with H2DCFDA for 30 min, washed in PBS and DCF fluorescence quantified by flow cytometry.^44

[4] = system: HepG2 cells; conditions: 2 μM SFN
Method: as §1

[5] = system: HMEC-1 endothelial cells; conditions: collagen conditioned with medium from BJ cells incubated with 2 μM SFN for 24 h
Method: The culture medium was then removed, incubated with human type IV collagen for 24 h and human microvascular endothelial HMEC-1 cell attachment studied as described^13a. […] The medium was then removed and added to wells of a 96-well plate (96-well; Costar; Corning) that had be prior coated type IV collagen. For the coating, 100-□l of 100 µg/ml of type IV collagen (human placental, type IV, pepsin extracted) was added to each well and incubated for 24 h at 37° C. Wells were then washed with phosphate buffered saline. Collagen coated wells were incubated with medium from BK cell cultures for 24 h at 37° C. and then washed with phosphate buffered saline. HMEC-1 endothelial cells (2.5×10^4 cells/well) were plated on to the collagen substrates and incubated for 1 h at 37° C. Non-adherent cells were removed and adherent cells were quantified by staining with 3-(4,5-dimethylthiazole-2-yl)-2,5-diphenyltetrazolium bromide, lysed with dimethylsulfoxide and the blue formazan product detected, by absorbance at 560 nm (Paul, R G, Bailey, A J: The effect of advanced glycation end-product formation upon cell-matrix interactions. Int J Biochem Cell Biol 31: 653-660, 2004).

[6] = system: Glo1; test: Glo1 mRNA by real-time RT-PCR in cultured cells; type: cell-based, human; conditions: for induction of Glo1 expression: known nrf2 activators, data not shown
Method: (§2) Cell Culture Human hepatoma HepG2 cells and human BJ fibroblasts were cultured in Eagle's Minimum Essential Medium (MEM) medium with 10% foetal calf serum (FCS) and 2 mM glutamine under an atmosphere of 5% CO2 in air, 100% humidity and 37° C. Where sulforaphane was used, the R-stereoisomer was used. R-Sulforaphane (SFN) and allyl isothiocyanate (AITC) were purchased from Sigma-Aldrich (Poole, Dorset, UK).
Real-Time PCR Total RNA was extracted from cultured cells which were treated with SFN, AITC using RNeasy Mini Kit (QIAGEN). cDNAs were synthesized with oligo (dT)18 primer and BioScript reverse transcriptase (BIOLINE). Human GLO1 and ACTB (β-actin reference gene) mRNA were quantified by real-time RT-PCR SYBR green method on ABI 7500 fast real-time PCR system. The following primers were used to amplify GLO1, forward 5′-[…]-3′ (SEQ ID NO: 5) and reverse 5′-[…]-3′ (SEQ ID NO: 6). The reference gene ACTB was amplified with primers 5′-[…]-3′ SEQ ID NO: 7)(forward) and 5′-[…]-3′ (SEQ ID NO: 8)(reverse).

[7] = system: GLO1 promoter (ARE1); conditions: ARE1 alone, HepG2 cells, 4 μM SFN 24 h
Method: Transfection and Luciferase Assay of Custom Vectors For luciferase assays, 2×10^5 HepG2 cells per well were plated into 24-well plates and cultured overnight. The cells were transfected with 0.5 μg reporter vector and 10 ng pRL-TK plasmid using Lipofectamine 2000 according to manufacture's protocol. The empty pGL3-basic vector was used as control. After 24 h, 4 μM SFN was added to the cells and vehicle (DMSO) added to control. After 24 h, the cells were washed with PBS and luciferase activity assay performed immediately or samples stored at −80° C. until analysis. For the reporter assay, 100 μl Cell Culture Lysis Reagent (CCLR, Promega) was added to cell extracts and shaken gently for 30 min. The activity mixture was centrifuged (12,000 g, 5 min, 4° C.) and an aliquot (20 μl) of supernatant used in the reporter assay. The luciferase activity was determined using a Dual Luciferase Reporter Assay System (Promega). The relative luciferase activities were normalized by co-transfection of pRL-TK vector.

[8] = system: Glo1; conditions: 2 μM SFN, over 16 h, BJ fibroblasts
Method: as §2

[9] = system: BJ fibroblasts; test: cells; conditions: Homo sapiens, Fibroblast, 24 h, read-out: cell viability during exposure to hydrogen peroxide
[10] = system: BJ fibroblasts; conditions: 2 μM SFN, after 48 h
[11] = system: BJ fibroblasts
Description: Normal ageing may be modelled in human cells in vitro by cell senescence.

[12] = system: BJ fibroblasts; conditions: scavenging of MG; reference 28; cited from earlier work
[13] = in vitro; conditions: human, BJ fibroblasts

C=CCN=C=S [AITC, allyl isothiocyanate]
frameshift mutations induced by MG ([1]; prior 2 μM AITC): prevented
frameshift mutation-dependent GFP induced by MG ([1]; prior exposure to 2 μM AITC): prevented

CC(=O)C=O [MG, methylglyoxal]
frameshift mutation-dependent GFP [1]: increased
frameshift mutations [1]: increased
IC50 [2]: 1.07 ± 0.08 mM

C[S@@+]([O-])CCCCN=C=S [SFN, R-Sulforaphane]
concentration of methylglyoxal in the cell culture ([3]; HepG2 culture medium): marked decrease
concentration of MG in cells ([3]; BJ fibroblasts, 2 μM SFN): decreased concentration
concentration of MG in the cell culture medium ([3]; BJ fibroblasts, 2 μM SFN): decreased concentration
endogenous ROS [4]: decrease
ROS induced by exogenous hydrogen peroxide ([4]; 20 μM hydrogen peroxide): decrease
HMEC-1 endothelial cell adhesion to type IV collagen [5]: Improved
time post-treatment at which Glo1 mRNA maximised ([6]; 2 μM SFN time course, BJ fibroblasts): 12 h
Glo1 mRNA ([6]; dose response, BJ fibroblasts): dose-dependent increase
Glo1 transcriptional response of luciferase reporter [7]: maximal induction
Glo1 protein [8]: increase in Glo1 protein progressively
viability at 0.5 µM [9]: 88%
cellular protein MG-H1 residue content [10]: decrease
effect on Hayflick limit ([11]; BJ cells, 1.0 μM SFN per passage from cumulative PDL 30): allowed escape from the Hayflick limit
Hayflick limit, cumulative PDL ([11]; BJ cells, 2×0.5 μM SFN per passage from cumulative PDL 45, control limit PDL 49): 50.5
increase in cell number per passage ([11]; BJ fibroblasts, 1.0 μM SFN per passage, beyond cumulative PDL 53): > 3 fold

N=C(N)NN [aminoguanidine]
effect on cytotoxicity induced by exogenous hydrogen peroxide in vitro [12]: protective

C=CCSSCC=C [diallyldisulphide]
induction of Glo1 expression [6]: not potent inducers

OO [hydrogen peroxide]
viability at 200 μM [13]: 74%

OCc1c[nH]c2ccccc12 [indole-3-carbinol]
induction of Glo1 expression [6]: not potent inducers

CC(C)(C)c1cc(O)ccc1O [tert-butylhydroquinone]
induction of Glo1 expression [6]: not potent inducers
